Source: ChEMBL document CHEMBL1128766, “The synthesis and lactamase inhibitory activity of 6-(carboxymethylene)penicillins and 7-(carboxymethylene)cephalosporins” (Bioorg Med Chem Lett, 1995)

Tests used:
Enterobacter cloacae [1] = test: […] antibacterial activity (synergistic study) against Enterobacter cloacae P99; assay type: functional
Staphylococcus aureus = test: […] antibacterial activity (synergistic study) against Staphylococcus aureus ATCC 29213; assay type: functional
Escherichia coli [2] = test: […] antibacterial activity (synergistic study) against Escherichia coli TEM-2; assay type: functional
Escherichia coli [3] = test: […] antibacterial activity (synergistic study) against Escherichia coli OXA-1; assay type: functional
Escherichia coli [4] = test: […] antibacterial activity (synergistic study) against Escherichia coli TEM-1; assay type: functional
Enterobacter cloacae [5] = test: […] antibacterial activity (synergistic study) against Enterobacter cloacae 12368; assay type: functional
Beta-lactamase [6] = molecular target: T1, Beta-lactamase (Enterobacter cloacae, UniProt P05364)
Description: Inhibitory activity against beta-Lactamase enzyme derived from Enterobacter cloacae SC 12368 E-2

Beta-lactamase [7] = molecular target: T1, Beta-lactamase; remark: listed apart in the source
Description: Inhibitory activity against beta-Lactamase enzyme derived from Enterobacter cloacae P99

Beta-lactamase TEM = Beta-lactamase TEM (Escherichia coli, UniProt P62593); test: Inhibitory activity against beta-Lactamase enzyme derived from Escherichia coli WC3310 TEM-2
Beta-lactamase TEM, sequence (P62593 whole entry): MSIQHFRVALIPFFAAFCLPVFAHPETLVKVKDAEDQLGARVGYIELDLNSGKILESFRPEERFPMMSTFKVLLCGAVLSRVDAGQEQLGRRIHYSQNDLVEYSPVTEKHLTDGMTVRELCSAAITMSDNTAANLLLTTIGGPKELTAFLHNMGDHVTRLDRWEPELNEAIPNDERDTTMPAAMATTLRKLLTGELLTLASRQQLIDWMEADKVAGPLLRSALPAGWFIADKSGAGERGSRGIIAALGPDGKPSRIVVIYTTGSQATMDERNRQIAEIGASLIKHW

T1 sequence (P05364 whole entry): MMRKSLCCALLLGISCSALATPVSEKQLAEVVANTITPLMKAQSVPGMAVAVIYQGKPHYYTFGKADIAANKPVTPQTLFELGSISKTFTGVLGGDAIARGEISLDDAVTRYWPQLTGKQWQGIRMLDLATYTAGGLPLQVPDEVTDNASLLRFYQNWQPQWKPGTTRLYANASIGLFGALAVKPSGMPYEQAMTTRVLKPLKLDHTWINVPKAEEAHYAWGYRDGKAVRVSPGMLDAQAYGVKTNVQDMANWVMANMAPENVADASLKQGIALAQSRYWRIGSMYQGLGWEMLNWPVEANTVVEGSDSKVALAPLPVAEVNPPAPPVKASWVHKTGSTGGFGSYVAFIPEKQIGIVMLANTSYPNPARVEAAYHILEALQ

SMILES	MIC (Enterobacter cloacae [1]) [mg/L]	MIC (Staphylococcus aureus) [mg/L]	MIC (Escherichia coli [2]) [mg/L]	MIC (Escherichia coli [3]) [mg/L]	MIC (Escherichia coli [4]) [mg/L]	MIC (Enterobacter cloacae [5]) [mg/L]	IC50 (Beta-lactamase [6]) [µM]	IC50 (Beta-lactamase [7]) [µM]	IC50 (Beta-lactamase TEM) [µM]
CC(=O)OCC1=C(C(=O)[O-])N2C(=O)/C(=C/C(=O)OC(C)(C)C)[C@H]2S(=O)(=O)C1.[Na+]	> 128	4	> 128	> 128	> 128	> 128			
CC(C)(C)OC(=O)/C=C1/C(=O)N2[C@@H](C(=O)[O-])C(C)(C)S(=O)(=O)[C@H]12.[Na+]	> 128	> 128	> 128	> 128	> 128	> 128	13.6	4.09	0.136
CC1(C)[C@H](C(=O)[O-])N2C(=O)/C(=C/C(=O)[O-])[C@H]2S1(=O)=O.[Na+].[Na+]	> 128	> 128	> 128	> 128	> 128	> 128	0.091	0.045	0.12
COC(=O)/C=C1/C(=O)N2[C@@H](C(=O)[O-])C(C)(C)S(=O)(=O)[C@H]12.[Na+]	> 128	> 128	> 128	> 128	> 128	> 128	0.615	0.154	0.308
CCN1CCN(C(=O)NC(C(=O)N[C@H]2C(=O)N3[C@H]2SC(C)(C)[C@H]3C(=O)O)c2ccccc2)C(=O)C1=O.COC(=O)/C=C1/C(=O)N2[C@@H](C(=O)[O-])C(C)(C)S(=O)(=O)[C@H]12.[Na+] (some centres undefined)	128	1	128	16	64	16			
CC(=O)OCC1=C(C(=O)[O-])N2C(=O)/C(=C/C(=O)[O-])[C@H]2S(=O)(=O)C1.[Na+].[Na+]	> 128	16	> 128	> 128	> 128	> 128	> 20	> 20	0.4
CC(C)(C)OC(=O)/C=C1/C(=O)N2[C@@H]1SC(C)(C)[C@@H]2C(=O)O							> 20	8.95	> 20
COC(=O)/C=C1/C(=O)N2C(C(=O)O)=C(COC(C)=O)CS[C@H]12							> 20	> 20	> 20
CC(=O)/C=C1/C(=O)N2[C@@H]1SC(C)(C)[C@@H]2C(=O)O							5.41	0.361	0.003
COC(=O)/C=C1/C(=O)N2[C@@H]1SC(C)(C)[C@@H]2C(=O)O							> 20	> 20	> 20
COC(=O)/C=C1/C(=O)N2C(C(=O)[O-])=C(COC(C)=O)CS(=O)(=O)[C@H]12.[Na+]	> 128	> 128	> 128	> 128	> 128	> 128	> 20	> 20	0.037
C=C=C1C(=O)N2C(C(=O)O)=C(COC(C)=O)CS(=O)(=O)[C@H]12							0.26	0.13	> 20
CC(=O)OCC1=C(C(=O)O)N2C(=O)/C(=C/C(=O)O)[C@H]2SC1							> 20	> 20	> 20
CC1(C)[C@H](C(=O)[O-])N2C(=O)/C(=C/C(=O)[O-])[C@H]2S1(=O)=O.CCN1CCN(C(=O)NC(C(=O)N[C@H]2C(=O)N3[C@H]2SC(C)(C)[C@H]3C(=O)O)c2ccccc2)C(=O)C1=O.[Na+].[Na+] (some centres undefined)	128	4	64	16	32	16			
CC(=O)OCC1=C(C(=O)[O-])N2C(=O)/C(=C/C(=O)OC(C)(C)C)[C@H]2S(=O)(=O)C1.CCN1CCN(C(=O)NC(C(=O)N[C@H]2C(=O)N3[C@H]2SC(C)(C)[C@H]3C(=O)O)c2ccccc2)C(=O)C1=O.[Na+] (some centres undefined)	128	4	128	64	64	16			
C=C1C(=O)N2C(C(=O)O)=C(COC(C)=O)CS(=O)(=O)[C@H]12							0.025	0.025	0.8
CC(=O)OCC1=C(C(=O)[O-])N2C(=O)/C(=C/C(=O)[O-])[C@H]2S(=O)(=O)C1.CCN1CCN(C(=O)NC(C(=O)N[C@H]2C(=O)N3[C@H]2SC(C)(C)[C@H]3C(=O)O)c2ccccc2)C(=O)C1=O.[Na+].[Na+] (some centres undefined)	128	4	128	64	64	32			
CC1(C)S[C@@H]2/C(=C\C(=O)O)C(=O)N2[C@H]1C(=O)O							> 20	13.9	> 20
CCN1CCN(C(=O)NC(C(=O)N[C@H]2C(=O)N3[C@H]2SC(C)(C)[C@H]3C(=O)O)c2ccccc2)C(=O)C1=O.COC(=O)/C=C1/C(=O)N2C(C(=O)[O-])=C(COC(C)=O)CS(=O)(=O)[C@H]12.[Na+] (some centres undefined)	128	4	64	64	32	16			
CC(C)(C)OC(=O)/C=C1/C(=O)N2[C@@H](C(=O)[O-])C(C)(C)S(=O)(=O)[C@H]12.CCN1CCN(C(=O)NC(C(=O)N[C@H]2C(=O)N3[C@H]2SC(C)(C)[C@H]3C(=O)O)c2ccccc2)C(=O)C1=O.[Na+] (some centres undefined)	128	2	> 128	32	128	32			
C[C@]1(Cn2ccnn2)[C@H](C(=O)O)N2C(=O)C[C@H]2S1(=O)=O (single isomer, unassigned) [TAZOBACTAM]	> 128	64	> 128	> 128	> 128	> 128			
CCN1CCN(C(=O)N[C@@H](C(=O)NC2C(=O)N3C2SC(C)(C)C3C(=O)O)c2ccccc2)C(=O)C1=O.C[C@]1(Cn2ccnn2)[C@H](C(=O)O)N2C(=O)C[C@H]2S1(=O)=O (single isomer, unassigned; form 1)	16	1	8	16	2	16			
CCN1CCN(C(=O)N[C@@H](C(=O)NC2C(=O)N3C2SC(C)(C)C3C(=O)O)c2ccccc2)C(=O)C1=O (single isomer, unassigned; form 2) [PIPERACILLIN]	> 128	4	> 128	64	> 128	16			
